Test results reported in patent US11299485B2, “Thiophene derivative and use thereof” (FUJIMOTO CO., LTD., priority 2018, dated 2022).

Columns and labels:
Format in all cases: cell-based
TNF-α production = experiment: Human TNF-α production suppression test (LPS-stimulated peripheral blood mononuclear cells, ELISA); conditions: PBMC, compound 10 μg/mL, 24 hr, control well = 100, read-out: TNF-α production suppressive rate (%)
Experimental: Example 50: Human TNF-α Production Suppression Test
Peripheral blood of a healthy adult was collected in a vacuum blood collection tube (Terumo, containing EDTA/2Na), and then diluted two-fold with an equal volume of OTSUKA NORMAL SALINE (Otsuka Pharmaceutical Co., Ltd.). The diluted blood was mixed with Lymphoprep (AXIS-SHIELD) in half the volume of the diluted blood, dispensed into a 15 mL conical tube, and centrifuged at room temperature for 20 min (2,100 rpm). The mononuclear cells accumulated at the interface between Lymphoprep and plasma was transferred to a 50 mL conical tube, diluted with OTSUKA NORMAL SALINE, and the mononuclear cells suspension was centrifuged at room temperature for 10 min (1,150 rpm) and then the supernatant was removed. The mononuclear cells fraction obtained as a precipitate was suspended in an appropriate amount of 10% fetal calf serum (Thermo Fisher Scientific)-containing RPMI1640 medium (Thermo Fisher Scientific, hereinafter abbreviated as medium A), and diluted as appropriate with 0.4% trypan blue solution (Sigma-Aldrich Co. LLC.). The number of viable cells was counted with a hemocytometer (ERMA INC.). It was diluted with medium A such that the value obtained was 5×10^5 cells/mL. On the other hand, 75 μL of medium A, 5 μL of 0.4 mg/mL test compound solution (DMSO solution 10-fold diluted with medium A), and 20 μL of 10 μg/mL lipopolysaccharide (Sigma-Aldrich Co. LLC.) solution (diluted with medium A) were each added in advance to the same well of a Falcon 96-well flat bottom plate (Corning Incorporated), and the above-mentioned cell suspension was dispensed at 0.1 mL/well. 5 μL of DMSO diluted 10-fold with medium A was added to the control well instead of the compound solution. After culturing at 37° C. in a 5% CO2 stream for 24 hr, the culture solution was centrifuged at 4° C., 1,000 rpm for 3 min and the supernatant was recovered. The content of TNF-α in the supernatant was measured using an ELISA kit (Peprotech) according to a conventional method. The amount of TNF-α produced in the well containing the test compound was determined with the amount of TNF-α produced in the control well as 100, and the suppression rate was calculated for each test.

Kasumi-7 cells = experiment: Human acute lymphoblastic leukemia cell line Kasumi-7 proliferation suppression test; conditions: 72 h, compound 10 μM, 3 days, WST-8, read-out: cell survival rate (% of control) Kasumi-7
Description: Example 55: Human Acute Lymphoblastic Leukemia Cell Line Kasumi-7 Proliferation Suppression Test
Kasumi-7 cells (NIBIOHN, JCRB1401) were suspended in 20% fetal calf serum (Thermo Fisher Scientific, Inc.)-containing RPMI1640 medium (ATCC, hereinafter abbreviated as medium C), and diluted as appropriate with 0.4% trypan blue solution (Sigma-Aldrich Co. LLC.). The number of viable cells was counted with a hemocytometer (Funakoshi Co., Ltd.). A cell suspension obtained by diluting with medium C such that the value obtained was 1.3×10^5 cells/mL was dispensed into a Falcon 96 well flat bottom plate (Corning Incorporated) at 75 μL/well, and culture was started at 37° C. under 5% CO2 stream. The next day, a solution obtained by diluting 4 mM DMSO solution of the test compound 100-fold with medium C was added by 25 μL to each well (final concentration of test compound 10 μM). 25 μL of a solution obtained by diluting DMSO 100-fold with medium C was added to the control well. After culturing at 37° C. in a 5% CO2 stream for 3 days, the cell proliferation activity was measured according to the instruction manual attached to WST-8 Kit (KISHIDA CHEMICAL Co., Ltd.).

Daudi cells = experiment: Human Burkitt lymphoma cell line Daudi proliferation suppression test; conditions: 72 h, compound 10 μM, 3 days, WST-8, read-out: cell survival rate (% of control) Daudi
Description: Example 54: Human Burkitt Lymphoma Cell Line Daudi Proliferation Suppression Test
(§1) Daudi cells (National Institutes of Biomedical Innovation, Health and Nutrition (NIBIOHN), JCRB9071) were suspended in medium B, and diluted as appropriate with 0.4% trypan blue solution (Sigma-Aldrich Co. LLC.). The number of viable cells was counted with a hemocytometer (ERMA INC.). A cell suspension obtained by diluting with medium B such that the value obtained was 1.3×10^5 cells/mL was dispensed into a Falcon 96 well flat bottom plate (Corning Incorporated) at 75 μL/well, and culture was started at 37° C. under 5% CO2 stream. The next day, a solution obtained by diluting 4 mM DMSO solution of the test compound 100-fold with medium B was added by 25 μL to each well (final concentration of test compound 10 μM). 25 μL of a solution obtained by diluting DMSO 100-fold with medium B was added to the control well. After culturing at 37° C. in a 5% CO2 stream for 3 days, the cell proliferation activity was measured according to the instruction manual attached to WST-8 Kit (KISHIDA CHEMICAL Co., Ltd.).

REC-1 cells = experiment: Human mantle cell lymphoma cell line REC-1 proliferation suppression test; conditions: Rec1, 72 h, compound 10 μM, 3 days, WST-8, read-out: cell survival rate (% of control) REC-1
Experimental: Example 53: Human Mantle Cell Lymphoma Cell Line REC-1 Proliferation Suppression Test
as §1, with “REC-1” for “Daudi”, “(ATCC, CRL-3004)” for “(National Institutes of Biomedical Innovation, Health and Nutrition (NIBIOHN), JCRB9071)”, “(Funakoshi Co., Ltd.).” for “(ERMA INC.).”

SMILES | inhibition at 10 µg/mL (TNF-α production) [%] | viability at 10 µM (Kasumi-7 cells) [%] | viability at 10 µM (Daudi cells) [%] | viability at 10 µM (REC-1 cells) [%]
O=C1CCC(n2cc(-c3cscc3Br)nn2)C(=O)N1 (stereo not shown) [compound 1, 3-[4-(4-bromothiophen-3-yl)-1H-1,2,3-triazol-1-yl]piperidine-2,6-dione] | 90 | 65 | 61 | 43
O=C1CCC(n2cc(-c3ccsc3)nn2)C(=O)N1 (stereo not shown) [compound 2, 3-[4-(thiophen-3-yl)-1H-1,2,3-triazol-1-yl]piperidine-2,6-dione] | 98 | 68 | 71 | 36
O=C1CCC(n2cc(-c3cccs3)nn2)C(=O)N1 (stereo not shown) [compound 3, 3-[4-(thiophen-2-yl)-1H-1,2,3-triazol-1-yl]piperidine-2,6-dione] | 59 | 81 | 78 | 65
O=C1CCC(n2nnc(-c3ccsc3)c2Cl)C(=O)N1 (stereo not shown) [compound 4, 3-[5-chloro-4-(thiophen-3-yl)-1H-1,2,3-triazol-1-yl]piperidine-2,6-dione] | 67 | 91 | 82 | 93
Cc1ccc(-c2cn(C3CCC(=O)NC3=O)nn2)s1 (stereo not shown) [compound 5, 3-[4-(5-methylthiophen-2-yl)-1H-1,2,3-triazol-1-yl]piperidine-2,6-dione] | 71 | 72 | 82 | 53
Cc1cc(-c2cn(C3CCC(=O)NC3=O)nn2)cs1 (stereo not shown) [compound 6, 3-[4-(5-methylthiophen-3-yl)-1H-1,2,3-triazol-1-yl]piperidine-2,6-dione] | 67 | 72 | 79 | 52
Cc1cscc1-c1cn(C2CCC(=O)NC2=O)nn1 (stereo not shown) [compound 7, 3-[4-(4-methylthiophen-3-yl)-1H-1,2,3-triazol-1-yl]piperidine-2,6-dione] | 73 | 69 | 75 | 44
CC(=O)c1ccc(-c2cn(C3CCC(=O)NC3=O)nn2)s1 (stereo not shown) [compound 8, 3-[4-(5-acetylthiophen-2-yl)-1H-1,2,3-triazol-1-yl]piperidine-2,6-dione] | 64 | 94 | 93 | 99
O=C1CCC(n2cc(-c3csc(CO)c3)nn2)C(=O)N1 (stereo not shown) [compound 9, 3-{4-[5-(hydroxymethyl)thiophen-3-yl]-1H-1,2,3-triazol-1-yl}piperidine-2,6-dione] | 41 | 90 | 83 | 70
O=C1CCC(n2cc(-c3scc4c3OCCO4)nn2)C(=O)N1 (stereo not shown) [compound 10, 3-[4-(2,3-dihydrothieno[3,4-b][1,4]dioxin-5-yl)-1H-1,2,3-triazol-1-yl]piperidine-2,6-dione] | 50 | 72 | 85 | 57
O=C1CCC(n2cc(-c3ccc(Cl)s3)nn2)C(=O)N1 (stereo not shown) [compound 11, 3-[4-(5-chlorothiophen-2-yl)-1H-1,2,3-triazol-1-yl]piperidine-2,6-dione] | 81 | 78 | 94 | 56
O=C1CCC(n2cc(-c3ccc(Br)s3)nn2)C(=O)N1 (stereo not shown) [compound 12, 3-[4-(5-bromothiophen-2-yl)-1H-1,2,3-triazol-1-yl]piperidine-2,6-dione] | 84 | 89 | 87 | 77
O=C1CCC(n2cc(-c3cc(Br)sc3Br)nn2)C(=O)N1 (stereo not shown) [compound 13, 3-[4-(2,5-dibromothiophen-3-yl)-1H-1,2,3-triazol-1-yl]piperidine-2,6-dione] | 35 | 93 | 95 | 100
O=C1CCC(n2cc(-c3cscc3Cl)nn2)C(=O)N1 (stereo not shown) [compound 14, 3-[4-(4-chlorothiophen-3-yl)-1H-1,2,3-triazol-1-yl]piperidine-2,6-dione] | 75 | 64 | 49 | 34
COc1c(-c2cn(C3CCC(=O)NC3=O)nn2)csc1C (stereo not shown) [compound 15, 3-[4-(4-methoxy-5-methylthiophen-3-yl)-1H-1,2,3-triazol-1-yl]piperidine-2,6-dione] | 85 | 60 | 61 | 36
COC(=O)c1scc(-c2cn(C3CCC(=O)NC3=O)nn2)c1OC (stereo not shown) [compound 16, methyl 4-[1-(2,6-dioxopiperidin-3-yl)-1H-1,2,3-triazol-4-yl]-3-methoxythiophene-2-carboxylate] | 100 | 90 | 83 | 85
CCOc1cscc1-c1cn(C2CCC(=O)NC2=O)nn1 (stereo not shown) [compound 17, 3-[4-(4-ethoxythiophen-3-yl)-1H-1,2,3-triazol-1-yl]piperidine-2,6-dione] | 92 | 48 | 50 | 23
COc1sccc1-c1cn(C2CCC(=O)NC2=O)nn1 (stereo not shown) [compound 18, 3-[4-(2-methoxythiophen-3-yl)-1H-1,2,3-triazol-1-yl]piperidine-2,6-dione] | 100 | 52 | 51 | 18
COc1cscc1-c1cn(C2CCC(=O)NC2=O)nn1 (stereo not shown) [compound 19, 3-[4-(4-methoxythiophen-3-yl)-1H-1,2,3-triazol-1-yl]piperidine-2,6-dione] | 83 | 24 | 4 | 4
